According to US20200290950A1, “ALKAMIDE COMPOUNDS AND USES THEREOF” (NORTH CAROLINA STATE UNIVERSITY, priority 2017, published 2020):

Key:
TRPA1 = target: T1, TRPA1 (Mus musculus, UniProt Q8BLA8); assay: Calcium response of DRG neurons to mustard (allyl isothiocyanate); type: cell-based; settings: cultured DRG neurons, fluorescence microscopy
T1 construct: The receptors TRPA1 and TRPV1 are expressed on neurons; from tissue; host or cells: primary dorsal root ganglion neurons from mice
Text: FIG. 11. Calcium response from DRG sensory neurons to alkamide of transient receptors. Mustard a TRPA1-receptor agonist activates DRG neurons in gray (A) and capsaicin, an agonist for TRPV1-receptors in the DRG neurons in red (B). Ligand A15 inhibits both TRPA1 and TRPV1 receptors activation in orange; however, 85Y a synthetic ligand only reduces the inhibition of TRPA1 but not TRPV1 receptors in blue. Total number of neurons (n)=135-145; p≤0.05.
Several different model systems were utilized for these experiments. In one model, dorsal root ganglia were obtained from mice and the neurons cultured in vitro. The neurons were then stimulated in the presence/absence of A15 and YM8-85 and the calcium responses monitored by fluorescence microscopy. In the second model, the alkamides were applied to mouse skin in mineral oil. The reactions of these mice to heat, cold, and tactile stimulation was then compared with mice that had not received treatment with A15. […] Alkamides were applied to sensitized animals and then ear swelling and bouts of scratching were monitored.
In vitro DRG neuron responses. […] Neurons were stimulated with mustard (allyl isothiocyanate) (A) an agonist for the receptor TRPA-1 or capsaicin (B) an agonist for the receptor TRPV-1 and calcium responses were measured in individual neurons by fluorescence microscopy. […]

TDI-induced ear swelling = type: in vivo, mouse
Text: (§1) Several different model systems were utilized for these experiments. In one model, dorsal root ganglia were obtained from mice and the neurons cultured in vitro. The neurons were then stimulated in the presence/absence of A15 and YM8-85 and the calcium responses monitored by fluorescence microscopy. In the second model, the alkamides were applied to mouse skin in mineral oil. The reactions of these mice to heat, cold, and tactile stimulation was then compared with mice that had not received treatment with A15. In a third model, mice were sensitized to the chemical compound toluene-2,4-diisocyanate (TDI). TDI is an industrial chemical which causes hypersensitive skin lesions and itching in exposed humans and animals. The physiological response to TDI is complex involving type 2 T lymphocytes, cytokines, mast cells, and neurons. Alkamides were applied to sensitized animals and then ear swelling and bouts of scratching were monitored.
A15 and TDI induced hypersensitivity. Mice were sensitized to toluene-2,4-diisocyanate (TDI) via abdominal application. Subsequently, a hypersensitive response was induced in the ear by direct application of TDI and ear thickness measured as a sign of inflammation.

[1] = TDI-induced scratching bouts (itch); type: in vivo, mouse; settings: higher dose 1.0%
Text: as §1
The effects of A15 on TDI-induced itch. The itch response was also monitored in mice sensitized and treated with TDI. Treated mice were video recorded and the number of scratching bouts quantified by an observer.

RBL-2H3 cells [2] = assay: β-Hexosaminidase release assay (Example 3); type: cell-based, rat
Experimental: FIGS. 21A-21D. The inhibition of degranulation is dependent on the length of the alkamide fatty acid chain. RBL-2H3 cells were plated overnight, stimulated with 1 μM A23187 (FIG. 21A) or 5 ng/mL DNP-BSA (FIG. 21B) for 1 h in the absence or presence of each compound. Graphs display the mean percent β-hex release. Data are presented as the mean of 4 experiments. Percent inhibition of degranulation of A23187 (FIG. 21C) or DNP-BSA (FIG. 21D) using data from A and B, respectively. *P<0.05, **P<0.01, ***P<0.001, one-way ANOVA with Dunnett's post hoc test compared to vehicle (A, B) or A15 (C, D).
RBL-2H3 cells (1.0×10^5 cells) were incubated with or without 0.1 μg/mL of IgE-DNP overnight in a 96 well plate at 37° C. with 5% CO2. The cells were washed with Tyrode's buffer and assayed with few modifications (Kuehn, Radinger, & Gilfillan, 2010). Briefly, IgE-DNP sensitized cells were stimulated 1 hour with 5 ng/mL of DNP-BSA in the absence or presence of each compound and incubated at 37° C. with 5% CO2. For experiments using only A23187 as the stimulant, cells were washed with Tyrode's buffer and stimulated 1 hour with 1 μM A23187 in the absence or presence of each compound and incubated at 37° C. with 5% CO2. The stimulated cells were centrifuged at 1200×g for 5 minutes. The supernatant or cell lysate (30 μL) was incubated with 3.4 mg/mL of p-NAG (10 μL) for 1 hour at 37° C. The reaction was terminated by addition of 0.2 M sodium carbonate (pH 10) and the absorbance was read at OD405 nm on a BioTek Synergy HT microplate reader. The total 3-hexosaminidase released from the cell was calculated as the difference between the OD of the supernatant and blank plus the difference between the OD of the lysate and blank. The percent β-hexosaminidase released from the cell was calculated as the difference between the OD of the supernatant and blank divided by the total β-hexosaminidase released from the cell multiplied by 100: ODsupernatant−ODblank/[(ODlysate−ODblank)+(ODsupernatant−ODblank)]*100.

RBL-2H3 cells [3] = assay: Calcium assay, Fluo-4 (Example 3); type: cell-based, rat
Experimental: FIGS. 22A-22D. The alkamide fatty acid is necessary for inhibition of calcium influx. RBL-2H3 cells were plated overnight, incubated with Fluo-4 AM for 1 h, stimulated by 1 μM A23187 (FIG. 22A) or 5 ng/mL DNP-BSA (FIG. 22B) in the absence or presence of each alkamide, and fluorescence was read for 2 mins every 5 secs. Data are presented as the mean change in RFU of 4 experiments. Percent inhibition of calcium influx was calculated for A23187 (FIG. 22C) and DNP-BSA (FIG. 22D) stimulated cells at 2 mins. *P<0.05, **P<0.01, and ***P<0.001 one-way ANOVA with Dunnett's post hoc test compared to A15.
RBL-2H3 cells (1.0×10^5 cells) were incubated overnight in a 96 well black-wall clear bottom plate with or without IgE-DNP (0.1 μg/mL) at 37° C. with 5% CO2. The assay was performed using the Fluo-4 Direct™ Calcium Assay Kit according to the manufacturer's instruction. Briefly, cells were incubated with the Fluo-4 Direct calcium reagent loading solution for 30 minutes at 37° C. with 5% CO2 then 30 mins at room temperature. Prior to stimulation, the well baseline fluorescence was measured every 5 seconds over 1 minute using a BioTek Synergy HT microplate reader with 485/20 nm excitation and 528/20 nm emission filters. Cells were stimulated with 1 μM A23187 or 5 ng/mL DNP (IgE-DNP) in the absence or presence of each compound, and the fluorescence was measured every 5 seconds over 2 minutes. The change in fluorescence (ΔRT) was calculated as the sample fluorescence minus the baseline fluorescence for each well.

RBL-2H3 cells [4] = assay: TNF-α ELISA, 18 hrs (Example 3); type: cell-based, rat; settings: 1 μM A23187, 18 hours
Experimental: FIGS. 25A-25B. […] RBL-2H3 cells were plated overnight and stimulated with 1 μM A23187 in the absence or presence of each alkamide for 18 h. Culture supernatants were analyzed for TNF-α levels by ELISA and experiments were performed in triplicate (FIG. 25A). Percent inhibition of TNF-α secretion for each alkamide listed in FIG. 25B. *P<0.05, **P<0.01, ***P<0.001, one-way ANOVA with Dunnett's post hoc test compared to vehicle (FIG. 25A) or A15 (FIG. 25B).
RBL-2H3 cells (1.0×10^5 cells) were incubated overnight in a 24 well plate at 37° C. with 5% CO2. Cells were washed with 1×PBS and stimulated with 1 μM A23187 for 18 hrs in the absence or presence of each compound. The cells were centrifuged (1200×g, 5 min) and the supernatants were collected. The concentration of TNF-α in the supernatants were determined using the TNF-α ELISA kit.

T1 sequence (Q8BLA8 whole entry): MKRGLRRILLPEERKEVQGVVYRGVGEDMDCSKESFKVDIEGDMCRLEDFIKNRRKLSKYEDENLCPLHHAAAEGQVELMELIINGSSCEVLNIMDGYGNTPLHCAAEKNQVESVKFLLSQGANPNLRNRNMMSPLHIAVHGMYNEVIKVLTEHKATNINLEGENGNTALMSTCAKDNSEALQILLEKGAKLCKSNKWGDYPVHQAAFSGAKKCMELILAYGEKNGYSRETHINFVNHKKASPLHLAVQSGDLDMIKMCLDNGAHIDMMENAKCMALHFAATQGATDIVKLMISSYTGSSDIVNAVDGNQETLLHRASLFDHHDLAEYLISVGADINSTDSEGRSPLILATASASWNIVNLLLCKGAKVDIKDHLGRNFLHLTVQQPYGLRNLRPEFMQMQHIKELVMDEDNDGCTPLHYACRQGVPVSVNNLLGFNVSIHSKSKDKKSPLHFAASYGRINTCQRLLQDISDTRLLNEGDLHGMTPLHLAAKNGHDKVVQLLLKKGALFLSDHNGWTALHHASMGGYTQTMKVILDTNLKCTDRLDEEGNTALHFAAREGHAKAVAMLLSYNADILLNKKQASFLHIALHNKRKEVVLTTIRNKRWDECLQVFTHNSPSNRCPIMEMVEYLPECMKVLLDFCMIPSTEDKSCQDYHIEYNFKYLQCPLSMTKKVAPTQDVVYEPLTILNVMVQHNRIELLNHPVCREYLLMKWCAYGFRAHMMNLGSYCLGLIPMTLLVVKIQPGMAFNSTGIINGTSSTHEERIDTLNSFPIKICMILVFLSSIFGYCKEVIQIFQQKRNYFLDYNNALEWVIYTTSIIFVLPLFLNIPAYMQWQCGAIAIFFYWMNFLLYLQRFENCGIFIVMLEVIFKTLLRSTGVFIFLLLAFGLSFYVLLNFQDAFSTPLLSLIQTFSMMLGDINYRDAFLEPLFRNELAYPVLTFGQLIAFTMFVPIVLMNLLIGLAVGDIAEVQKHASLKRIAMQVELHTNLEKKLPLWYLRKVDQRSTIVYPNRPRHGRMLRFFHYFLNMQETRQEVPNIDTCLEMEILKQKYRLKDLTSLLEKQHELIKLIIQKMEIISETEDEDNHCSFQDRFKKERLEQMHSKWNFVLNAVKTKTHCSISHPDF

DRG neuron calcium response to mustard (TRPA1 agonist) (TRPA1): inhibit
Compound: CCCCCCCC(=O)NCC(C)C [YM8-85, N-Isobutyloctanamide]
TDI ear swelling (ear thickness) (TDI-induced ear swelling; 0.1%, first experiment (FIG. 13A)): significant responses were not seen
TDI ear swelling (ear thickness) (TDI-induced ear swelling; 0.1%, repeated experiment (FIG. 13B)): neither A15 nor YM8-85 at 0.1% produced significant inhibition
TDI ear swelling (ear thickness) (TDI-induced ear swelling; 1%, first experiment (FIG. 13A)): significant responses were not seen
scratching bouts in TDI treated mice [1]: significant inhibition of scratching
percent inhibition of degranulation (RBL-2H3 cells [2]; 5 ng/mL DNP-BSA, 1 hour): 60%
percent inhibition of degranulation (RBL-2H3 cells [2]; 1 μM A23187, 1 hour): 64%
percent inhibition of calcium influx (RBL-2H3 cells [3]; 5 ng/mL DNP-BSA, at 2 minutes): 49%
percent inhibition of calcium influx (RBL-2H3 cells [3]; 1 μM A23187, at 2 minutes): 91%
percent inhibition of TNF-α secretion (RBL-2H3 cells [4]): 43%
